Measured values taken from US12304912B2, “Fused bicyclic RAF inhibitors and methods for use thereof” (Jazz Pharmaceuticals Ireland Limited, priority 2020, dated 2025).

Columns and labels:
[1] = test system: BRAF monomers in A375 cells; experiment: A375 AlphaLISA SureFire pERK1/2 cellular assay (monomer); type: cell-based; details: Homo sapiens, A-375; A375 cells, 1 hr; read-out: pERK A375 (1 hr) pIC50 (converted)
Method in brief: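 BRAF^V600E A375 melanoma cells seeded at 30,000/well in DMEM with 10% FBS, dosed without medium exchange in a 10-point series from 10 μM at 1/2-log steps, 1 h at 37 °C. Phospho-ERK1/2 (Thr202/Tyr204) measured in lysates by AlphaLISA SureFire; absolute IC50 relative to DMSO control.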

[2] = test system: RAF dimers in HCT-116 cells; experiment: HCT-116 AlphaLISA SureFire pERK1/2 cellular assay (dimer); type: cell-based; details: Homo sapiens, HCT-116; HCT116 cells pre-dosed with 1 μM Encorafenib, 1 hr; read-out: pERK HCT116 dimer (1 hr) pIC50 (converted)
Method in brief: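 HCT-116 (KRAS G13D) cells, 30,000/well, pretreated 1 h with 1 μM Encorafenib to induce RAF dimers, washed, then dosed 1 h at 37° C with compound (10-point, top 10 μM, 1/2 log steps) in growth medium. pERK1/2 (T202/Y204) measured by AlphaLISA SureFire; absolute IC50 versus DMSO control.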

[3] = Microsomal stability assay, human liver microsomes (HLM); type: in vitro ADME; details: 0.5 mg/mL protein, 1 μM substrate
Method in brief: (§1)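 Half-life and CLint come from the ln(% remaining)–time slope, with remaining compound quantified by LC-MS/MS after ice-cold solvent quench of timed samples. Incubations used 1 μM test compound and 0.5 mg·mL^−1 human or mouse liver microsomal protein at 37° C.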

[4] = Microsomal stability assay, mouse liver microsomes (MLM); type: in vitro ADME; details: 0.5 mg/mL protein, 1 μM substrate
Method in brief: as §1

[5] = Plasma protein binding assay, human plasma (hPPB); type: in vitro ADME; details: 5 μM, equilibrium dialysis 4 hours 37° C.
Method in brief: (§2)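 Equilibrium dialysis of 5 μM compound in previously frozen human or mouse plasma against phosphate buffer, 4 h at 37 °C. Both chambers quantified by LC-MS/MS; % free = (1−((PC−PF)/PC))×100.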

[6] = Plasma protein binding assay, mouse plasma (mPPB); type: in vitro ADME; details: 5 μM, equilibrium dialysis 4 hours 37° C.
Method in brief: as §2

[7] = Solubility (Sol), medium not stated; type: physicochemical; details: cells not marked (FESSIF)

SMILES | IC50 [1] | IC50 [2] | microsomal CLint at 1 μM [3] | microsomal CLint at 1 μM [4] | hPPB (% free) [5] | mPPB (% free) [6] | Sol [7]
O=C1CCc2c(Oc3ccc4c(c3)CC(c3nc5c(C(F)(F)F)cccc5[nH]3)CO4)ccnc2N1 (stereo not shown) [Compound 27] | 0.389 µM | 0.38 µM | 102 µL/min/mg | 148 µL/min/mg | <0.1 % free | <0.1 % free | <1.2 mg/L
O=C1CCc2c(Oc3ccc4c(c3)CC(c3nc(-c5ccccc5C(F)(F)F)c[nH]3)CO4)ccnc2N1 (stereo not shown) [Compound 4, 5-[3-[4-[2-(trifluoromethyl)phenyl]-1H-imidazol-2-yl]chroman-6-yl]oxy-3,4-dihydro-1H-1,8-naphthyridin-2-one] | 0.0977 µM | 0.269 µM | 261 µL/min/mg | 121 µL/min/mg | <0.1 % free | 0.5 % free | <1.3 mg/L
COc1cccc(-c2c[nH]c(C3COc4ccc(Oc5ccnc6c5CCC(=O)N6)cc4C3)n2)c1 (stereo not shown) [Compound 13, 5-[3-[4-(3-methoxyphenyl)-1H-imidazol-2-yl]chroman-6-yl]oxy-3,4-dihydro-1H-1,8-naphthyridin-2-one] | 0.0355 µM | 0.123 µM | 77.1 µL/min/mg | 114 µL/min/mg | 0.7 % free | 1.2 % free | <1.2 mg/L
Cc1cccc(-c2c[nH]c(C3COc4ccc(Oc5ccnc6c5CCC(=O)N6)cc4C3)n2)c1 (stereo not shown) [Compound 14, 5-[3-[4-(m-tolyl)-1H-imidazol-2-yl]chroman-6-yl]oxy-3,4-dihydro-1H-1,8-naphthyridin-2-one] | 0.0182 µM | 0.0759 µM | 60.7 µL/min/mg | 51.3 µL/min/mg | 0.1 % free | 0.5 % free | <1.1 mg/L
COc1cncc(-c2c[nH]c(C3COc4ccc(Oc5ccnc6c5CCC(=O)N6)cc4C3)n2)c1 (stereo not shown) [Compound 17, 5-[3-[4-(5-methoxy-3-pyridyl)-1H-imidazol-2-yl]chroman-6-yl]oxy-3,4-dihydro-1H-1,8-naphthyridin-2-one] | 0.933 µM | 0.347 µM | 31.5 µL/min/mg | 16.5 µL/min/mg | 0.7 % free | 2.4 % free | <1.2 mg/L
COc1ccc(-c2c[nH]c(C3COc4ccc(Oc5ccnc6c5CCC(=O)N6)cc4C3)n2)cc1 (stereo not shown) [Compound 10, 5-[3-[4-(4-methoxyphenyl)-1H-imidazol-2-yl]chroman-6-yl]oxy-3,4-dihydro-1H-1,8-naphthyridin-2-one] | 0.832 µM | 0.282 µM | 89.1 µL/min/mg | 45.9 µL/min/mg | 0.6 % free | 0.7 % free | <1.2 mg/L
Cc1ccc(-c2c[nH]c(C3COc4ccc(Oc5ccnc6c5CCC(=O)N6)cc4C3)n2)cc1 (stereo not shown) [Compound 9, 5-[3-[4-(p-tolyl)-1H-imidazol-2-yl]chroman-6-yl]oxy-3,4-dihydro-1H-1,8-naphthyridin-2-one] | 0.331 µM | 0.186 µM | 70.5 µL/min/mg | 6.1 µL/min/mg | 0.6 % free | 0.4 % free | <1.1 mg/L
O=C1CCc2c(Oc3ccc4c(c3)CN(C(=O)NCc3ccccc3)CC4)ccnc2N1 [Compound 48] | 9.12 µM | 7.24 µM | 40.5 µL/min/mg | 38.4 µL/min/mg | 2 % free | 3 % free | <1.1 mg/L
O=C1CCc2c(Oc3ccc4c(c3)CC(c3nc(-c5ccc(C(F)(F)F)cc5)c[nH]3)CO4)ccnc2N1 (stereo not shown) [Compound 20, 5-[3-[4-[4-(trifluoromethyl)phenyl]-1H-imidazol-2-yl]chroman-6-yl]oxy-3,4-dihydro-1H-1,8-naphthyridin-2-one] | 0.741 µM | 0.603 µM | 16.9 µL/min/mg | 3 µL/min/mg | 0.1 % free | 0.1 % free | <1.3 mg/L
O=C1CCc2c(Oc3ccc4c(c3)CC(c3nc(-c5cccc(F)c5)c[nH]3)CO4)ccnc2N1 (stereo not shown) [Compound 15, 5-[3-[4-(3-fluorophenyl)-1H-imidazol-2-yl]chroman-6-yl]oxy-3,4-dihydro-1H-1,8-naphthyridin-2-one] | 0.024 µM | 0.0676 µM | 39.9 µL/min/mg | 33.9 µL/min/mg | 0.2 % free | 1.3 % free | <1.1 mg/L
